“And” between values parts separate entries of the source, which are not always exact repeats. Identical values can stand only once.
target: T1, recombinant human Wip1 (1–420) (Homo sapiens, UniProt O15297); assay: Wip1 phosphatase activity inhibition assay; assay type: biochemical; conditions: not given
T1 sequence (O15297 1-420): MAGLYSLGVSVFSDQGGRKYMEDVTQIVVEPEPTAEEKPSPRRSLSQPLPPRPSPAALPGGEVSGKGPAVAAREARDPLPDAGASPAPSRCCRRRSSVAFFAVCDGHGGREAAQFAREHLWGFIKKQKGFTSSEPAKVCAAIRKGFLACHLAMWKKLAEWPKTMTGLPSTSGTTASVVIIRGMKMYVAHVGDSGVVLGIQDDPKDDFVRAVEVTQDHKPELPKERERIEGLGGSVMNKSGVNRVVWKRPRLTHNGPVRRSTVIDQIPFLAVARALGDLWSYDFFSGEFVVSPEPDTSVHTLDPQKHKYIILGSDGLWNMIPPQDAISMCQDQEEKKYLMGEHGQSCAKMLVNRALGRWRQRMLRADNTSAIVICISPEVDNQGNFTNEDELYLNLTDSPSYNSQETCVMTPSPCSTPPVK

SMILES	Wip1 inhibitory activity (in words)	IC50 [µM]
Nc1ccccc1CC1CCCCC1 [Compound 10, 2-(cyclohexylmethyl)aniline]	did not have significant inhibitory activity	
Nc1ccccc1CCC1CCCCC1 [Compound 12, 2-(2-cyclohexylethyl)aniline]	did not have significant inhibitory activity	
O=C(O)c1cccc(CNc2ccccc2CC2CCCCC2)c1 [Compound 14, 3-(((2-(cyclohexylmethyl)phenyl)amino)methyl)benzoic acid]	modest inhibition	
O=C(O)c1cccc(CNc2ccccc2CCC2CCCCC2)c1 [Compound 16, 3-(((2-(2-cyclohexylethyl)phenyl)amino)methyl)benzoic acid]	modest inhibition	
O=C(Nc1cccc(OP(=O)(O)O)c1)c1ccc(NCCCc2ccccc2)c(CC2CCCCC2)c1 [Compound 22c, 3-(3-(cyclohexylmethyl)-4-((3-phenylpropyl)amino)benzamido)phenyl dihydrogen phosphate]		165
O=C(Nc1cccc(OP(=O)(O)O)c1)c1ccc(NCc2ccc3ccccc3c2)c(CC2CCCCC2)c1 [Compound 22h, 3-(3-(cyclohexylmethyl)-4-((naphthalen-2-ylmethyl)amino)benzamido)phenyl dihydrogen phosphate]	weak activity	

same assay, conditions: fixed-slope logistic curve, which assumes the Hill coefficient = 1 (footnote a)

SMILES	Hill coefficient [n]
CCCCC(CCCC)CNc1ccc(C(=O)Nc2cccc(OP(=O)(O)O)c2)cc1CC1CCCCC1 [Compound 22b, 3-(4-((2-butylhexyl)amino)-3-(cyclohexylmethyl)benzamido)phenyl dihydrogen phosphate]	1^a
O=C(Nc1cccc(OP(=O)(O)O)c1)c1ccc(NCCCc2ccccc2)c(CC2CCCCC2)c1 [Compound 22c, 3-(3-(cyclohexylmethyl)-4-((3-phenylpropyl)amino)benzamido)phenyl dihydrogen phosphate]	1^a
O=C(Nc1cccc(OP(=O)(O)O)c1)c1ccc(NCc2ccc3ccccc3c2)c(CC2CCCCC2)c1 [Compound 22h, 3-(3-(cyclohexylmethyl)-4-((naphthalen-2-ylmethyl)amino)benzamido)phenyl dihydrogen phosphate]	1^a

same assay, conditions: variable slope logistic fit of Wip1 inhibition curve

SMILES	Hill coefficient [n]
O=C(O)c1cccc(CNc2ccccc2CC2CCCCC2)c1 [Compound 14, 3-(((2-(cyclohexylmethyl)phenyl)amino)methyl)benzoic acid]	1.9 ± 0.4
COC(=O)c1ccc(NCc2cccc(C(=O)O)c2)c(CC2CCCCC2)c1 [Compound 15, 3-(((2-(cyclohexylmethyl)-4-(methoxycarbonyl)phenyl)amino)methyl)benzoic acid]	2.8 ± 0.5
COC(=O)c1ccc(NCc2cccc(C(=O)O)c2)c(CCC2CCCCC2)c1 [Compound 17, 3-(((2-(2-cyclohexylethyl)-4-(methoxycarbonyl)phenyl)amino)methyl)benzoic acid]	4.4 ± 0.4
Nc1ccc(C(=O)Nc2cccc(OP(=O)(O)O)c2)cc1CC1CCCCC1 [Compound 22a, 3-(4-amino-3-(cyclohexylmethyl)benzamido)phenyl dihydrogen phosphate]	1.2 ± 0.10
COc1ccc(CNc2ccc(C(=O)Nc3cccc(OP(=O)(O)O)c3)cc2CC2CCCCC2)cc1 [Compound 22d, 3-(3-(cyclohexylmethyl)-4-((4-methoxybenzyl)amino)benzamido)phenyl dihydrogen phosphate]	2.0 ± 0.2
COc1cccc(CNc2ccc(C(=O)Nc3cccc(OP(=O)(O)O)c3)cc2CC2CCCCC2)c1 [Compound 22e, 3-(3-(cyclohexylmethyl)-4-((3-methoxybenzyl)amino)benzamido)phenyl dihydrogen phosphate]	1.3 ± 0.3
O=C(Nc1cccc(OP(=O)(O)O)c1)c1ccc(NCc2cccc(F)c2)c(CC2CCCCC2)c1 [Compound 22f, 3-(3-(cyclohexylmethyl)-4-((3-fluorobenzyl)amino)benzamido)phenyl dihydrogen phosphate]	3.4 ± 0.4
O=C(Nc1cccc(OP(=O)(O)O)c1)c1ccc(NCc2ccc(F)cc2)c(CC2CCCCC2)c1 [Compound 22g, 3-(3-(cyclohexylmethyl)-4-((4-fluorobenzyl)amino)benzamido)phenyl dihydrogen phosphate]	3 and 3.0 ± 0.4
COc1cc(OC)cc(-c2ccc(CNc3ccc(C(=O)Nc4cccc(OP(=O)(O)O)c4)cc3CC3CCCCC3)cc2)c1 [Compound 22j, 3-(3-(cyclohexylmethyl)-4-(((3’,5’-dimethoxy-[1,1’-biphenyl]-4-yl)methyl)amino)benzamido)phenyl dihydrogen phosphate]	1.8 ± 0.1

Reference: PMC9664485 (European journal of medicinal chemistry, 2022)
